Data on 9 compounds can be found in patent US7566724B2, “Glycine derivative and use thereof” (Toray Industries, Inc., priority 2004, dated 2009).

Molecules are shown by their SMILES. Where a name gives a salt, the structure may show the parent alone.

Data set [1] concerns leukotriene B4 production by neutrophils. The experiment in a line: Measurement of Inhibitory Effect on Inflammatory Mediator Production by Leukocytes (ionomycin-induced leukotriene B4 in neutrophils). The conditions noted are these: 0.5 h, human neutrophil suspension, 37° C. 30 minutes, EIA. It counts as cell-based. The protocol: A mixture of human peripheral blood and physiological saline containing 3% dextran was left to stand for 30 minutes and then the upper layer was recovered. The upper layer was overlaid on Histopaque 1077 (SIGMA), and the resultant was centrifuged at 1400 rpm for 30 minutes. The supernatant was removed by aspiration and a buffer was added to the precipitate to prepare a neutrophil suspension (4×10^5 cells/mL). To the neutrophil suspension, ionomycin was added and the mixture was incubated at 37° C. for 30 minutes, followed by quantification of leukotriene B4 by EIA (Amersham, Biotrak EIA system). Each test compound was added to the neutrophil suspension before adding ionomycin. In Table 19, the IC50 of each compound is shown.

In another data set the test system is Jurkat cells. The experiment in a line: Measurement of Inhibitory Effect on Leukocyte Functions (adhesion of Jurkat cells to ligand-expressing cells or ligand-immobilized plate). It counts as cell-based. The conditions noted are these: Homo sapiens, 0.5 h; fluorescently labelled Jurkat cells, ligand-expressing cells or ligand-immobilized plate, 37° C. 30 minutes; read-out: IC50 (adhesion of Jurkat cells). The protocol: Jurkat cells which are a cell line originated from human acute T cell lymphoma were allowed to react with BCECF-AM at 37° C. for 20 minutes to fluorescently label the cells. The fluorescently labelled Jurkat cells were allowed to react with ligand-expressing cells or with a ligand-immobilized plate at 37° C. for 30 minutes. After removing non-adherent cells by washing, 1% NP40 was added to lyse the adherent cells, and fluorescence intensity was measured with Cytoflow 2300 (Millipore). From the obtained fluorescence intensity, the number of adherent cells was calculated. Each test compound was reacted with the Jurkat cells before the beginning of the adhesion reaction. In Table 18, the IC50 of each compound is shown.

Data set [2] has as its system DSS-induced colitis. Nature of the data set: Dextran Sulfate Sodium (DSS)-induced Colitis Model of Mice (1). In kind it is in vivo, Female BALB/c mice. The conditions noted are these: 3 w/v % DSS for 8 days, scored at day 8. The protocol: Female BALB/c mice (Charles River, Japan) of 7 to 9 weeks old were allowed to freely drink 3 w/v % dextran sulfate sodium (DSS) for 8 days to induce colitis. The non-induced (background) group was allowed to freely drink sterilized distilled water. The compound described in Example 28 was orally administered to the mice at a dose of 5 mg/kg, and the compounds described in Example 4, Example 22 and Example 78 were orally administered to the mice at a dose of 15 mg/kg every day. At day 8 from the beginning of the drinking, stool consistency was scored (0: normal stool, 2: loose stool, 4: diarrhea) by using the method described by Murthy et al (see, for example, Dig Dis Sci., 38, 1722 (1993)).

A short description of data set [3]: Pharmacokinetic Evaluation in Rats. In kind it is in vivo. The conditions noted are these: rat, male SD rats, administered orally or intravenously, plasma up to 8 hours, LC/MS/MS; for bioavailability: oral, read-out: BA(%) (bioavailability); for clearance: read-out: CLtot (total clearance) (converted). The protocol: Each compound was dissolved at a concentration of 0.5 mg/ml in PBS or in PBS containing 10% PEG. The compound was administered orally or intravenously to male SD rats (7 to 9 weeks old). Blood was collected from the tail vein at time points up to 8 hours after the administration, and blood plasma was collected by centrifugation from each obtained blood. The blood plasma was pretreated by using the solid-phase extraction method, and the concentration of the compound was analyzed with LC/MS/MS (ESI negative mode).
As the Comparative Compound, 2-[4-((3,5-dichlorobenzensulfonylamino)methyl)benzoylamino]-5-(4-(methyl-pyrimidin-2-ylamino)phenyl)pento-4-ene acid (XXI) described in WO 99/26923 was used.
[“BA” in Table 17 means bioavailability, and “CLtot” means total clearance.]

Data set [4] concerns DSS-induced colitis. The experiment in a line: Dextran Sulfate Sodium (DSS)-induced Colitis Model of mice (2). In kind it is in vivo, Female BALB/c mice. The conditions noted are these: orally 5 mg/kg every day from Day 27 to Day 31; DSS 5 to 7 days then water 5 days, repeated 3 times. The protocol: Female BALB/c mice (Charles River, Japan) of 7 to 9 weeks old were allowed to freely drink 3 w/v % dextran sulfate sodium (DSS) for 5 to 7 days, and then to freely drink sterilized distilled water for 5 days. The procedure was repeated 3 times to induce colitis. The non-induced (background) group was allowed to freely drink sterilized distilled water. The compounds described in Examples 81 and 84 were orally administered to the mice at a dose of 5 mg/kg, respectively, every day from Day 27 to Day 31 after from the beginning of the drinking, and stool consistency was scored (0: normal stool, 2: loose stool, 4: diarrhea) by using the method described by Murthy et al (see, for example, Dig Dis Sci., 38, 1722 (1993).

Turning to `Cc1cccc(Cl)c1C(=O)NC(C/C=C/c1ccc(N(C)c2ncccn2)cc1)C(=O)O` (centres unmarked) [Example 67, (E)-2-(2-Chloro-6-methylbenzamido)-5-[4-(methyl-pyrimidin-2-ylamino)phenyl]pent-4-enoic acid], the IC50 (in general, the midpoint of a concentration-inhibition curve) in data set [1] was 30000 nM; in the data set with Jurkat cells, 280 nM.

As to `COC1(c2ccc(/C=C/CC(NC(=O)c3c(Cl)cccc3Cl)C(=O)O)cc2)CCOCC1` (centres unmarked) [Example 4, (E)-2-(2,6-Dichlorobenzamido)-5-[4-(4-methoxytetrahydropyran-4-yl)-phenyl]pent-4-enoic acid], the IC50 in data set [1] was 52300 nM. The “rate of amelioration (stool consistency score)” value (“rate of amelioration” below) in the data set on DSS-induced colitis [2] (orally 15 mg/kg every day) stood at 44%. Also, in data set [3], the bioavailability (usually dose-corrected exposure relative to a reference, in per cent) stood at 55% and the clearance is 10.1 mL/min/kg. For the same compound, the IC50 in the data set with Jurkat cells came to 247 nM.

`O=C(NC(C/C=C/c1ccc(N(Cc2ccccc2)c2ncccn2)cc1)C(=O)O)c1c(Cl)cccc1Cl` (centres unmarked) [Example 33, (E)-5-[4-(Benzyl-pyrimidin-2-yl-amino)-phenyl]-2-(2,6-dichlorobenzamido)-pent-4-enoic acid sodium salt]: the IC50 in data set [1] was found to be 16300 nM.

For the compound `CC(C)N(c1ccc(/C=C/C[C@H](NC(=O)c2c(Cl)cccc2Cl)C(=O)[O-])cc1)c1ncccn1.[Na+]` [Example 84, (S,E)-2-(2,6-Dichlorobenzamido)-5-[4-(isopropyl-pyrimidin-2-ylamino)phenyl]pent-4-enoic acid sodium salt], in the data set with DSS-induced colitis [4], the “rate of amelioration” value is given as 82.4%. Besides, the IC50 in the data set on Jurkat cells was 30 nM.

Regarding `CN(c1ccc(/C=C/CC(NC(=O)c2c(Cl)cccc2Cl)C(=O)O)cc1)c1ncccn1` (centres unmarked) [Example 22, (E)-2-(2,6-Dichlorobenzamido)-5-[4-(methyl-pyrimidin-2-ylamino)phenyl]pent-4-enoic acid], the IC50 in data set [1] was 176000 nM; with Jurkat cells it was 160 nM. The “rate of amelioration” value in the data set on DSS-induced colitis [2] (orally 15 mg/kg every day) was found to be 67%. Besides, the bioavailability in data set [3] came to 61.7%. For the same compound, in data set [3], the clearance is 5.1 mL/min/kg.

As for `COC1(c2ccc(/C=C/C[C@H](NC(=O)c3c(Cl)cccc3Cl)C(=O)[O-])cc2)CCOCC1.[Na+]` [Example 78, (S,E)-2-(2,6-Dichlorobenzamido)-5-[4-(4-methoxytetrahydropyran-4-yl)-phenyl]pent-4-enoic acid sodium salt], the “rate of amelioration” value with DSS-induced colitis [2] (orally 15 mg/kg every day) is on record as 40%. The half-inhibitory concentration (IC50) with Jurkat cells is 54 nM.

Regarding `CN(c1ccc(/C=C/C[C@H](NC(=O)c2c(Cl)cccc2Cl)C(=O)[O-])cc1)c1ncccn1.[Na+]` [Example 81, (S,E)-2-(2,6-Dichlorobenzamido)-5-[4-(methyl-pyrimidin-2-ylamino)phenyl]pent-4-enoic acid sodium salt], in the data set on DSS-induced colitis [4], the “rate of amelioration” value is given as 68.8%. Besides, in data set [3], the bioavailability is 52.1% and the clearance was 17 mL/min/kg. Further, the IC50 in the data set with Jurkat cells turned out to be 82 nM.

The compound `CC(C)N(c1ccc(/C=C/CC(NC(=O)c2c(Cl)cccc2Cl)C(=O)O)cc1)c1ncccn1` (centres unmarked) [Example 28, (E)-2-(2,6-Dichlorobenzamido)-5-[4-(isopropyl-pyrimidin-2-ylamino)phenyl]pent-4-enoic acid] registered an IC50 in data set [1] of 7400 nM. In addition, the “rate of amelioration” value in the data set on DSS-induced colitis [2] (orally 5 mg/kg every day) amounted to 71%. Moreover, in data set [3], the bioavailability is 80.6% and the clearance is 14.9 mL/min/kg. For the same compound, the IC50 in the data set with Jurkat cells came to 56 nM.

In the case of `CCOC1(c2ccc(/C=C/CC(NC(=O)c3c(Cl)cccc3Cl)C(=O)O)cc2)CCOCC1` (centres unmarked) [Example 6, (E)-2-(2,6-Dichlorobenzamido)-5-[4-(4-ethoxytetrahydropyran-4-yl)-phenyl]pent-4-enoic acid], in data set [1], the IC50 was 5630 nM. Also, in data set [3], the bioavailability was 68.5% and the clearance was 19.8 mL/min/kg.
